Reference: patent US10450321B2, “[1,2,3]triazolo[4,5-D]pyrimidine derivatives” (Hoffmann-La Roche Inc., priority 2016, dated 2019)
Like-named read-outs stand apart in the source and are kept apart here.

Assays:
human CB1 receptor = human CB1 receptor (Homo sapiens (Human), UniProt P21554); assay: Radioligand binding assay, [3H]-CP-55,940, HEK cell membranes expressing human CNR1
Experimental: (§1) Radioligand Binding Assay
(§2) The affinity of the compounds of the invention for cannabinoid receptors was determined using recommended amounts of membrane preparations (PerkinElmer) of human embryonic kidney (HEK) cells expressing the human CNR1 or CNR2 receptors in conjunction with 1.5 or 2.6 nM [3H]-CP-55,940 (Perkin Elmer) as radioligand, respectively. Binding was performed in binding buffer (50 mM Tris, 5 mM MgCl2, 2.5 mM EDTA, and 0.5% (wt/vol) fatty acid free BSA, pH 7.4 for CB1 receptor and 50 mM Tris, 5 mM MgCl2, 2.5 mM EGTA, and 0.1% (wt/vol) fatty acid free BSA, pH 7.4 for CB2 receptor) in a total volume of 0.2 mL for 1 h at 30° C. shaking. The reaction was terminated by rapid filtration through microfiltration plates coated with 0.5% polyethylenimine (UniFilter GF/B filter plate; Packard). Bound radioactivity was analyzed for Ki using nonlinear regression analysis (Activity Base, ID Business Solution, Limited), with the Kd values for [^3H]CP55,940 determined from saturation experiments.

human CB2 receptor = human CB2 receptor (Homo sapiens (Human), UniProt P34972); assay: Radioligand binding assay, [3H]-CP-55,940, HEK cell membranes expressing human CNR2
Experimental: as §1, §2

[1] = membranes of HEK cells expressing human CNR1, 1.5 nM [3H]-CP-55,940, 1 h at 30° C., read-out: human CB1 Ki
[2] = membranes of HEK cells expressing human CNR2, 2.6 nM [3H]-CP-55,940, 1 h at 30° C., read-out: human CB2 Ki

human CB1 receptor, sequence (P21554 whole entry): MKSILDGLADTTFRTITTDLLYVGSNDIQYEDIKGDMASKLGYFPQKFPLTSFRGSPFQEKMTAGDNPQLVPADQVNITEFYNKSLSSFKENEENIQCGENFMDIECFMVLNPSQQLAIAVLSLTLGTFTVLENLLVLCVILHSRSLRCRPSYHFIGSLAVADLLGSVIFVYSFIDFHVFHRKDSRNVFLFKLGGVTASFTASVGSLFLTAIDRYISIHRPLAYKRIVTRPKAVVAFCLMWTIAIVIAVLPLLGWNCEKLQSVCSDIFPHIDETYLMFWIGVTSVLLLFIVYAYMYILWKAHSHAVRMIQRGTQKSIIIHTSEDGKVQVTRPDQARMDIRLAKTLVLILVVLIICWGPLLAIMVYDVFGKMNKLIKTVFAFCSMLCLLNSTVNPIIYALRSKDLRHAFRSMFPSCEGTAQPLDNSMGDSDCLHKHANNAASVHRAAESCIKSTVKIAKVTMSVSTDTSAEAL
human CB2 receptor, sequence (P34972 whole entry): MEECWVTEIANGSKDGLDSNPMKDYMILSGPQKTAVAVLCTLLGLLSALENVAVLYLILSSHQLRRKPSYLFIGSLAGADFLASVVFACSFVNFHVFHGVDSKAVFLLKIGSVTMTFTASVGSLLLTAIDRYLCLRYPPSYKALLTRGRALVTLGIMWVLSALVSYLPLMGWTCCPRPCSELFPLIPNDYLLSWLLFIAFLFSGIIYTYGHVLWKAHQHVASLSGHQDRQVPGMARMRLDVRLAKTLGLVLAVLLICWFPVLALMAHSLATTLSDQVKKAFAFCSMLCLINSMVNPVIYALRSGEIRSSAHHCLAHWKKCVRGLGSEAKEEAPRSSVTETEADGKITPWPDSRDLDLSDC

Structure (SMILES) | Ki (human CB1 receptor) [nM] | Ki (human CB2 receptor) [nM] | Ki (human CB1 receptor; [1]) [nM] | Ki (human CB2 receptor; [2]) [nM]
CC(C)(C)c1nc(N2CC[C@H](O)C2)c2nn(Cc3ccccc3S(=O)(=O)F)nc2n1 [Example 1, 2-({5-tert-Butyl-7-[(3S)-3-hydroxypyrrolidin-1-yl]-2H-[1,2,3]triazolo[4,5-d]pyrimidin-2-yl}methyl)benzene-1-sulfonyl fluoride] | > 10000 | 1160 | – | –
CC(C)(C)c1nc(N2CCC(F)(F)C2)c2nn(Cc3ccccc3CS(=O)(=O)F)nc2n1 [Example 2, (2-{[5-tert-Butyl-7-(3,3-difluoropyrrolidin-1-yl)-2H-[1,2,3]triazolo[4,5-d]pyrimidin-2-yl]methyl}phenyl)methanesulfonyl fluoride] | > 10000 | 637 | – | –
CC(C)(C)c1nc(N2CC[C@H](O)C2)c2nn(Cc3ccccc3CN=C=S)nc2n1 [Example 3, (3S)-1-(5-tert-Butyl-2-{[2-(isothiocyanatomethyl)phenyl]methyl}-2H-[1,2,3]triazolo[4,5-d]pyrimidin-7-yl)pyrrolidin-3-ol] | – | – | > 10000 | 529
CC(C)(C)c1nc(N2CCC(F)(F)C2)c2nn(Cc3ccccc3N=C=S)nc2n1 [Example 4, 5-tert-Butyl-7-(3,3-difluoropyrrolidin-1-yl)-2-[(2-isothiocyanatophenyl)methyl]-2H-[1,2,3]triazolo[4,5-d]pyrimidine] | – | – | > 10000 | 453
CC(C)(C)c1nc(N2CCC(F)(F)C2)c2nn(Cc3ccccc3S(=O)(=O)F)nc2n1 [Example 5, 2-{[5-tert-Butyl-7-(3,3-difluoropyrrolidin-1-yl)-2H-[1,2,3]triazolo[4,5-d]pyrimidin-2-yl]methyl}benzene-1-sulfonyl fluoride] | > 10000 | 361 | – | –
CC(C)(C)c1nc(N2CCC(F)(F)C2)c2nn(Cc3ccccc3CN=C=S)nc2n1 [Example 6, 5-tert-Butyl-7-(3,3-difluoropyrrolidin-1-yl)-2-{[2-(isothiocyanatomethyl)phenyl]methyl}-2H-[1,2,3]triazolo[4,5-d]pyrimidine] | – | – | 4880 | 211
C#Cc1cccc(S(=O)(=O)F)c1Cn1nc2nc(C(C)(C)C)nc(N3CCC(F)(F)C3)c2n1 [Example 7, 2-[[5-tert-Butyl-7-(3,3-difluoropyrrolidin-1-yl)triazolo[4,5-d]pyrimidin-2-yl]methyl]-3-ethynylbenzenesulfonyl fluoride] | > 10000 | 421 | – | –
